This test deals with T1, Polyphenol oxidase 2 (Agaricus bisporus, UniProt O42713).
T1 sequence (O42713 whole entry): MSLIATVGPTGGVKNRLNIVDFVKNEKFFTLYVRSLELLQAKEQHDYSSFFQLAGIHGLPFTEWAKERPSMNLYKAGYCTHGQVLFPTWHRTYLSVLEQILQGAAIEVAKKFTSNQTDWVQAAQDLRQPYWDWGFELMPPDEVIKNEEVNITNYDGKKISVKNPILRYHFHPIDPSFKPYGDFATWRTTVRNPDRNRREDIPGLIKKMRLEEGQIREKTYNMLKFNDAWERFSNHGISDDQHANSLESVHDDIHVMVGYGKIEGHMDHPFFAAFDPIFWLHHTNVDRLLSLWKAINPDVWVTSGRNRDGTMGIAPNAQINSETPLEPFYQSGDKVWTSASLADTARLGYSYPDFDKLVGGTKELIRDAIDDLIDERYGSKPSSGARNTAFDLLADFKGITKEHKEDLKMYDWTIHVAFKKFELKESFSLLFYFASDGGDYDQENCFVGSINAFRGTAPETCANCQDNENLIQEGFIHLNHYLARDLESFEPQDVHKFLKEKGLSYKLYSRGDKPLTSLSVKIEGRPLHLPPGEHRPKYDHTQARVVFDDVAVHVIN
Description: Spectrophotometic Assay. The conditions noted are these: pH 6.8; 30 °C. An excerpt:
The IC50 values were obtained from a spectrophotometric assay.

A word on the IC50: it is the concentration at which inhibition is half-maximal. Read a high IC50 as a need for much substance.

With `O=NN(O)Cc1ccccc1O` [N-nitrosohydroxylamine N-substituted, 4], half-maximal inhibition (IC50) was put at 19.2 µM.

The compound `O=NN(O)Cc1cccc(O)c1` [N-nitrosohydroxylamine N-substituted, 5] came in with an IC50 of 20.3 µM.

The compound `O=NN(O)Cc1ccc(O)cc1` [N-nitrosohydroxylamine N-substituted, 6] showed an IC50 of 13.7 µM.

`O=NN(O)Cc1ccc(O)cc1O` [N-nitrosohydroxylamine N-substituted, 7] displayed an IC50 of 11.6 µM.

In turn, `O=NN(O)Cc1cc(O)ccc1O` [N-nitrosohydroxylamine N-substituted, 8] yielded an IC50 of 23.8 µM.

`O=NN(O)Cc1ccc(Cl)cc1` [N-nitrosohydroxylamine N-substituted, 9] yielded a concentration for half-maximal inhibition (IC50) of 13.1 µM.

The compound `COc1ccc(CN(O)N=O)cc1` [N-nitrosohydroxylamine N-substituted, 10] yielded an IC50 of 9.7 µM. This IC50 and that of the compound before are within 1.5-fold of each other.

`CC(C)(C)c1ccc(CN(O)N=O)cc1` [N-nitrosohydroxylamine N-substituted, 11] had an IC50 of 15.8 µM. This IC50 lies about 1.6-fold higher than the previous one.

Values taken from BindingDB's records for doi:10.1016/S0045-2068(03)00026-9 (Keio University, 2003).
